{"source": "paper PMC8867149", "about": "“Phosphorylated and Phosphonated Low‐Complexity Protein Segments for Biomimetic Mineralization and Repair of Tooth Enamel” (Advanced Science, 2022)", "target": "T1, Alkaline phosphatase, calf intestinal (ALP) (Bos taurus, UniProt P19111)", "T1 construct": "purchased New England BioLabs (printed 'NEW ENGLANK BioLabs Inc.') M0290", "T1 sequence (P19111 20-533)": "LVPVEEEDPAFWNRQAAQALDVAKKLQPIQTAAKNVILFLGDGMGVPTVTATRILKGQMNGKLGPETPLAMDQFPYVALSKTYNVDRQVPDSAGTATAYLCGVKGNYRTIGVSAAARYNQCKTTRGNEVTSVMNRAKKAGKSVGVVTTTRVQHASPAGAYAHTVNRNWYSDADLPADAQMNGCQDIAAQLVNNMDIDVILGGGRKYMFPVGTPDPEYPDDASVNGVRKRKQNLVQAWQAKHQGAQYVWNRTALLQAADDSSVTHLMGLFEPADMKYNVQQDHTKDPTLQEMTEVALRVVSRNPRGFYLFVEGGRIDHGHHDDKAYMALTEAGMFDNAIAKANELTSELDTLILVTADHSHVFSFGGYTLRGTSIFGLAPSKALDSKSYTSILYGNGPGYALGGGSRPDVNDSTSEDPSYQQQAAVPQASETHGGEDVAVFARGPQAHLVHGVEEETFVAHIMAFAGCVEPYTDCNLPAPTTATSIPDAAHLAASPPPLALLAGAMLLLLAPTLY", "assay": "Stability of phosphate/phosphonate group in the presence of ALP (HPLC)", "assay_type": "in vitro ADME", "details": "10 U mL^−1 ALP (calf intestinal), half an hour; peptide assemblies; HPLC read-out", "description": "Figure 2 Characterization of LCPSs and their self‐assembly. a) FTIR characterization of different molecular structures among the LCPS peptides with a concentration of 10 mg mL^−1 LCPS assembly solution. b) Negatively stained TEM images showing the self‐assembled structures of LCPS‐OH, LCPS‐OP, and LCPS‐CP at pH 3.0, 5.0, 7.0, and 9.0. c) Zeta potential values of LCPSs at pH 7. The data are the means ± SD (n = 3 repeats per group). d) CD spectra of LCPS‐OH, LCPS‐OP, and LCPS‐CP assembly solutions (10 mg mL^−1) at pH 7. Self‐assembly of e) LCPS‐OP and f) LCPS‐CP after the addition of ALP. g) HPLC charts chromatograms of LCPS solutions with or without the addition of ALP. The LCPSs were incubated with 10 U mL^−1 ALP for half an hour.\nThe aggregated peptides were mineralized in the neutral condition directly as mentioned above, in the presence of 10 U mL^−1 ALP (calf‐intestinal). After assembling, 10 µL of the peptide assembly solution was diluted with equal volume of ddH2O. Then, 100 µL of the 1.35 × 10^−3 M CaCl2 solution containing 10 U mL^−1 ALP was added into the peptide assembly solution, and the resultant mixed solution was vibrated for 1 h to ensure the binding of calcium ions with the peptide aggregates. Next, 100 µL of the 0.81 × 10^−3 M K2HPO4 solution containing 10 U mL^−1 ALP was added dropwise for about 1 h while vibrating. […]", "note": "Non-standard residues stand in square brackets, D forms with d. Residues, ends and D or L forms follow the SMILES beside them. pS = N[C@@H](COP(=O)(O)O)C(=O)O", "data": [{"smiles": "N[C@@H](CO)C(=O)N[C@@H](Cc1ccc(O)cc1)C(=O)N[C@@H](COP(=O)(O)O)C(=O)NCC(=O)N[C@@H](Cc1ccc(O)cc1)C(=O)N[C@@H](CO)C(=O)O", "note": "[LCPS‐OP] (H-SY[pS]GYS-OH)", "values": [{"measurement": "stability of phosphate/phosphonate group in the presence of ALP", "result": "completely hydrolyzed"}]}]}
